Experiments:
Crofton weed = assay: Needle puncture pathogenic test on slightly wounded leaf of Crofton weed; type: in vivo; conditions: Crofton weed leaf; for Time of Disease spot / Average diameter of spot after 24 h: 50 μg/mL, 25° C., natural light; for Avg. diameter of the spot after 24 h / Time of disease spot to occur: analogs with formula (I) and (II)
Protocol: 3-acetyl-5-sec-butyl-4-hydroxy-3-pyrrolin-2-one analogs were dissolved in a small amount of methanol and diluted with water to a concentration of 5-100 μg/g. A pathogenic test was conducted by placing the toxic liquid on the slightly wounded leaf of Crofton weed with a needle. The test has shown that the pathogenic capability of 3-acetyl-5-sec-butyl-4-hydroxy-3-pyrrolin-2-one analogs with respect to Crofton weed increases with the increase of concentration. The spot diameter caused on the leaf of Crofton weed after 24 hours was 2 mm at 50 μg/g.
3-acetyl-5-sec-butyl-4-hydroxy-3-pyrrolin-2-one analogue (Table 3, compounds 10-57) was dissolved in small amount of methanol. The solution was then diluted with distilled water to a concentration of 50 μg/mL. Methanol solution with same concentration and pure distilled water were used as control of the experiment. A pathogenic test was conducted by placing the toxic liquid on the slightly wounded leaf of Crofton weed with a needle. The experiment was carried out at 25° C. under the natural light and each test was repeated 6 times. It was measure the diameter of the spot after 24 h. […] The size of the side chain also has an effect on their activity.
Fourteen salts of 3-acetyl-5-sec-butyl-4-hydroxy-3-pyrrolin-2-one analogs were dissolved in small amount of methanol and diluted with distilled water to a concentration of 50 μg/mL. Methanol/water mixture was also prepared and used as control. Needle puncture method was used for the test on the small pieces of Crofton weed. Each treatment was repeated six times or more. The test samples were kept under natural light at 25° C. for 24 hours. The diameters of damaged spot of the plant leaves were measured by vernier caliper.

Hill reaction = Hill reaction activity of treated Crofton weed leaves; type: biochemical; conditions: 50 μg/mL, strong light 12 hours
Protocol: (§1) Compounds 10-57 were dissolved in small amount of methanol. The solutions were then diluted with distilled water to a concentration of 50 μg/mL. A mixture of methanol and water in the same ratio as the sample solution was also prepared and used as control in the experiment. The healthy leaves of Crofton weed were washed in water for 30 minutes and then rinsed with distilled water. The clean and tissue dried leaves were placed in petri dish with the back-side of the leaves facing up. Wet filter paper was also placed in the in petri dish for moisture control. Water, methanol and chemical solutions of the analogues were applied to the back-side of each leaf. Test sample was then placed in vacuum chamber at 25° C. for 15 min followed by exposure to the strong light (400 μM m^−2 s^−1) for 12 hours. The leaf sample went through a series of test, and the Hill reaction rate, the electron transfer activity and fluorescence of chlorophyll were measured. Four leaves were used for each treatment and each test was repeated three times.

photosystem II = assay: PSII oxygen evolution / electron transfer activity of treated Crofton weed leaves; type: biochemical; conditions: 50 μg/mL, strong light 12 hours
Protocol: as §1

[1] = tested on: fluorescence of chlorophyll; assay: Fluorescence of chlorophyll of treated Crofton weed leaves; type: biochemical; conditions: 50 μg/mL, strong light 12 hours
Protocol: as §1

Structure (SMILES) | Time of Disease spot (Crofton weed) | Average diameter of spot after 24 h (Crofton weed) | Activity of Hill Reaction (Hill reaction) | PSII Activity of oxygen evolution (photosystem II) | Fv/Fm [1] | Avg. diameter of the spot after 24 h (Crofton weed) | Time of disease spot to occur (Crofton weed)
CC(=O)C1=C(O)CNC1=O [Compound 10] | 29 ± 6.30 h | 1.11 ± 0.16 mm | 84.32 uMO2/mgChlh | 47.55 uMO2/mgChlh | 0.79 |  | 
CC(=O)C1=C(O)C(C)(C)NC1=O [Compound 22] | 20.0 ± 1.63 h | 1.76 ± 0.24 mm | 56.16 uMO2/mgChlh | 38.05 uMO2/mgChlh | 0.82 |  | 
CCCC1(C)NC(=O)C(C(C)=O)=C1O (stereo not drawn) [Compound 26] | 13.61 ± 1.35 h | 3.31 ± 0.07 mm | 89.15 uMO2/mgChlh | 58.01 uMO2/mgChlh | 0.82 |  | 
CCOC1=C(O)C(C(C)CC)NC1=O (stereo not drawn) [Compound 5] |  |  | 52.31 uMO2/mgChlh | 24.10 uMO2/mgChlh | 0.82 | 2.35 ± 0.14 mm | 20.7 ± 0.75 h
CCCC1NC(=O)C(C(C)=O)=C1O (stereo not drawn) [Compound 13] | 16.70 ± 0.21 h | 5.21 ± 0.44 mm | 78.19 uMO2/mgChlh | 41.35 uMO2/mgChlh | 0.85 |  | 
CCC(C)C1NC(=O)C(C(=O)OCCc2ccccc2)=C1O (stereo not drawn) [Compound 46] | 22.1 ± 1.35 h | 2.31 ± 0.44 mm | 58.78 uMO2/mgChlh | 43.67 uMO2/mgChlh | 0.82 |  | 
CCC(C)C1NC(=O)C(C(=O)CCCl)=C1O (stereo not drawn) [Compound 43] | 20.1 ± 1.15 h | 2.30 ± 0.28 mm | 63.35 uMO2/mgChlh | 47.80 uMO2/mgChlh | 0.83 |  | 
CCC(=O)NC1=C(O)C(C(C)CC)NC1=O (stereo not drawn) [Compound 9] |  |  | 50.12 uMO2/mgChlh | 23.33 uMO2/mgChlh | 0.83 | 2.80 ± 0.33 mm | 21.9 ± 2.00 h
CCCCCC(C#N)C1NC(=O)C(=C(C)O)C1=O (stereo not drawn) [Compound 54] | 11.30 ± 0.73 h | 8.211 ± 0.101 mm | 43.65 uMO2/mgChlh | 31.98 uMO2/mgChlh | 0.81 |  | 
CSCCC1NC(=O)C(C(C)=O)=C1O (stereo not drawn) [Compound 41] | 20.8 ± 3.00 h | 2.45 ± 0.24 mm | 59.07 uMO2/mgChlh | 41.32 uMO2/mgChlh | 0.83 |  | 
CCCCC1(CCCC)NC(=O)C(C(C)=O)=C1O [Compound 28] | 16.9 ± 2.25 h | 2.40 ± 0.11 mm | 75.03 uMO2/mgChlh | 31.76 uMO2/mgChlh | 0.82 |  | 
CC(=O)C1=C(O)C(C)NC1=O (stereo not drawn) [Compound 11] | 21.5 ± 0 h | 1.80 ± 0.41 mm | 80.00 uMO2/mgChlh | 46.41 uMO2/mgChlh | 0.82 |  | 
CCC(C)C1NC(=O)C(C(=O)Cc2ccc([N+](=O)[O-])cc2)=C1O (stereo not drawn) [Compound 52] | 15.3 ± 1.72 h | 3.83 ± 1.03 mm | 53.13 uMO2/mgChlh | 36.86 uMO2/mgChlh | 0.82 |  | 
CC(=O)C1C(=O)NC(C)C1=O (stereo not drawn) [Compound 57] | 20.4 ± 0 h | 1.98 ± 0.51 mm | 63.42 uMO2/mgChlh | 35.13 uMO2/mgChlh | 0.82 |  | 
CCCC1(CCC)NC(=O)C(C(C)=O)=C1O [Compound 25] | 15.22 ± 2.00 h | 2.44 ± 0.10 mm | 97.55 uMO2/mgChlh | 57.12 uMO2/mgChlh | 0.82 |  | 
CCCCCCCCC1NC(=O)C(C(C)=O)=C1O (stereo not drawn) [Compound 18] | 12.00 ± 0.48 h | 8.27 ± 0.61 mm | 67.27 uMO2/mgChlh | 39.98 uMO2/mgChlh | 0.80 |  | 
CCCC1(CC)NC(=O)C(C(C)=O)=C1O (stereo not drawn) [Compound 27] | 14.2 ± 4.15 h | 3.18 ± 0.93 mm | 91.45 uMO2/mgChlh | 53.24 uMO2/mgChlh | 0.81 |  | 
CCC1NC(=O)C(C(C)=O)=C1O (stereo not drawn) [Compound 12] | 15.2 ± 0.35 h | 2.77 ± 0.23 mm | 70.32 uMO2/mgChlh | 34.54 uMO2/mgChlh | 0.83 |  | 
CCOCCC(=O)C1=C(O)C(C(C)CC)NC1=O (stereo not drawn) [Compound 45] | 20.3 ± 0.57 h | 2.73 ± 0.73 mm | 41.00 uMO2/mgChlh | 27.04 uMO2/mgChlh | 0.79 |  | 
CCC1(CC)NC(=O)C(C(C)=O)=C1O [Compound 23] | 18.3 ± 2.17 h | 2.23 ± 0.12 mm | 63.28 uMO2/mgChlh | 38.24 uMO2/mgChlh | 0.79 |  | 
CCC(C)C1NC(=O)C(C(=O)Cc2ccccc2)=C1O (stereo not drawn) [Compound 51] | 15.1 ± 1.82 h | 3.28 ± 1.12 mm | 52.23 uMO2/mgChlh | 32.15 uMO2/mgChlh | 0.81 |  | 
